Results from ChEMBL document CHEMBL6083195, “Cornulacin: a new isoflavone from Cornulaca monacantha and its isolation, structure elucidation and cytotoxicity through EGFR-mediated apoptosis” (RSC Med Chem, 2024).

Key:
PANC-1 = assay: Cytotoxicity against human PANC-1 cells by MTT assay; type: functional, cell-based
A2780 [1] = assay: Cytotoxicity against human A2780 cells by MTT assay; type: functional, cell-based
KB = assay: Cytotoxicity against human KB cells; type: functional, cell-based
A2780 [2] = assay: Induction of cell cycle arrest in human A2780 cells assessed as accumulation at S phase at IC50 incubated for 48 hrs by flow cytometry (reference value: 30.6 %); type: functional
A2780 [3] = assay: Induction of apoptosis in human A2780 cells assessed as fold increase in P53 mRNA level at IC50 incubated for 48 hrs by RT-PCR analysis relative to control; type: functional
A2780 [4] = assay: Induction of apoptosis in human A2780 cells assessed as early apoptotic cells at IC50 incubated for 48 hrs by Annexin V-FITC/PI staining based flow cytometry (reference value: 0.72 %); type: functional
A2780 [5] = assay: Induction of apoptosis in human A2780 cells assessed as fold increase in Bax mRNA level at IC50 incubated for 48 hrs by RT-PCR analysis relative to control; type: functional
A2780 [6] = assay: Induction of apoptosis in human A2780 cells assessed as fold increase in caspase-9 mRNA level at IC50 incubated for 48 hrs by RT-PCR analysis relative to control; type: functional
A2780 [7] = assay: Induction of apoptosis in human A2780 cells assessed as late apoptotic cells at IC50 incubated for 48 hrs by Annexin V-FITC/PI staining based flow cytometry (reference value: 0.23 %); type: functional
A2780 [8] = assay: Induction of apoptosis in human A2780 cells assessed as fold decrease in Bcl-2 mRNA level at IC50 incubated for 48 hrs by RT-PCR analysis relative to control; type: functional
A2780 [9] = assay: Induction of cell cycle arrest in human A2780 cells assessed as accumulation at G1 phase at IC50 incubated for 48 hrs by flow cytometry (reference value: 41.8 %); type: functional
A2780 [10] = assay: Induction of apoptosis in human A2780 cells assessed as fold increase in caspase-3 mRNA level at IC50 incubated for 48 hrs by RT-PCR analysis relative to control; type: functional
WISH = assay: Cytotoxicity against human WISH cells by MTT assay; type: functional, cell-based
A2780 [11] = assay: Induction of cell cycle arrest in human A2780 cells assessed as accumulation at G2/M phase at IC50 incubated for 48 hrs by flow cytometry (reference value: 27.5 %); type: functional
A2780 [12] = assay: Induction of apoptosis in human A2780 cells assessed as necrotic cells at IC50 incubated for 48 hrs by Annexin V-FITC/PI staining based flow cytometry (reference value: 1.52 %); type: functional
A2780 [13] = assay: Induction of apoptosis in human A2780 cells assessed as total apoptotic cell death at IC50 incubated for 48 hrs by Annexin V-FITC/PI staining based flow cytometry (reference value: 0.955 %); type: functional
A2780 [14] = assay: Induction of apoptosis in human A2780 cells assessed as fold increase in caspase-8 mRNA level at IC50 incubated for 48 hrs by RT-PCR analysis relative to control; type: functional

Structure (SMILES): O=C(/C=C/c1ccc(O)c(O)c1)NCCc1ccc(O)cc1
- IC50 (PANC-1): 7.2 µM
- IC50 (A2780 [1]): 11.2 µM

Structure (SMILES): COc1cc(/C=C/C(=O)NCCc2ccc(O)c(OC)c2)ccc1O
- IC50 (PANC-1): 7 µM
- IC50 (A2780 [1]): 2.9 µM

Structure (SMILES): COc1cc(OC)c(-c2coc3c4c(c(OC)cc3c2=O)OC(C)(C)C=C4)cc1OC
- IC50 (KB): 2 µM

Structure (SMILES): COc1cc(/C=C(\Oc2ccc(/C=C/C(=O)NCCc3ccc(O)cc3)cc2OC)C(=O)NCCc2ccc(O)cc2)ccc1O
- IC50 (PANC-1): 19.3 µM
- IC50 (A2780 [1]): 25.1 µM

Structure (SMILES): COCc1c(O)cc2occ(-c3ccccc3O)c(=O)c2c1OC
- Activity (A2780 [2]): 43.3%
- fold change (FC) (A2780 [3]): 6.7
- IC50 (PANC-1): 6.4 µM
- Activity (A2780 [4]): 29.17%
- IC50 (A2780 [1]): 2.1 µM
- fold change (FC) (A2780 [5]): 5.4
- fold change (FC) (A2780 [6]): 8.08
- Activity (A2780 [7]): 14.48%
- fold change (FC) (A2780 [8]): 0.3
- Activity (A2780 [9]): 46.2%
- fold change (FC) (A2780 [10]): 8.1
- IC50 (WISH): ≥ 100 µM
- Activity (A2780 [11]): 10.48%
- Activity (A2780 [12]): 7.54%
- Activity (A2780 [13]): 43.65%
- fold change (FC) (A2780 [14]): 6.09

Structure (SMILES): COc1cc([C@H]2c3cc(O)c(OC)cc3/C(=C\C(=O)NCCc3ccc(O)cc3)[C@H]2C(=O)NCCc2ccc(O)cc2)ccc1O
- IC50 (PANC-1): 24.1 µM
- IC50 (A2780 [1]): 31.2 µM

Structure (SMILES): C#Cc1cccc(Nc2ncnc3cc(OCCOC)c(OCCOC)cc23)c1 [ERLOTINIB]
- IC50 (PANC-1): 2.17 µM
- IC50 (A2780 [1]): 1.13 µM

Structure (SMILES): COc1cc(/C=C/C(=O)NCCc2ccc(O)cc2)ccc1O [N-TRANS-FERULOYL TYRAMINE]
- IC50 (PANC-1): 3.4 µM
- IC50 (A2780 [1]): 9.1 µM
